Two molecules from paper PMC10003107, “Selectivity of Hydroxamate- and Difluoromethyloxadiazole-Based Inhibitors of Histone Deacetylase 6 In Vitro and in Cells” (International Journal of Molecular Sciences, 2023) can be followed below.

Structures are written as SMILES.

Data set [1] has as its target T1, HDAC1 (Homo sapiens, UniProt Q13547).
T1 construct: HDAC1 1-482 Addgene; Strep-FLAG-HALO (N); made in house; host or cells: HEK293/T17
The data set is described as follows: In vitro deacetylation assay, HDAC1 (RHKK substrate). Type of data set: biochemical. The note with it: for IC50: purified human HDAC1, RHK[AcK]-AMC (RHKK) substrate; for SI (HD6/HD1) RHKK: ratio of IC50 HDAC1 (RHKK) divided by IC50 HDAC6.

For the next data set, the system named is tubulin acetylation. The data set is described as follows: Tubulin acetylation in RPMI-8226 cells by quantitative Western blotting. The conditions noted are these: Homo sapiens, RPMI-8226, 6 h; read-out: IC50 tubulin deacetylation (relative tubulin acetylation). The format is cell-based. A general note: Immunoblotting shows a protein as a band on a membrane.

Another data set concerns the target T2, HDAC6-nanoLuc (Homo sapiens, UniProt Q9UBN7).
T2 sequence (Q9UBN7 1-1215): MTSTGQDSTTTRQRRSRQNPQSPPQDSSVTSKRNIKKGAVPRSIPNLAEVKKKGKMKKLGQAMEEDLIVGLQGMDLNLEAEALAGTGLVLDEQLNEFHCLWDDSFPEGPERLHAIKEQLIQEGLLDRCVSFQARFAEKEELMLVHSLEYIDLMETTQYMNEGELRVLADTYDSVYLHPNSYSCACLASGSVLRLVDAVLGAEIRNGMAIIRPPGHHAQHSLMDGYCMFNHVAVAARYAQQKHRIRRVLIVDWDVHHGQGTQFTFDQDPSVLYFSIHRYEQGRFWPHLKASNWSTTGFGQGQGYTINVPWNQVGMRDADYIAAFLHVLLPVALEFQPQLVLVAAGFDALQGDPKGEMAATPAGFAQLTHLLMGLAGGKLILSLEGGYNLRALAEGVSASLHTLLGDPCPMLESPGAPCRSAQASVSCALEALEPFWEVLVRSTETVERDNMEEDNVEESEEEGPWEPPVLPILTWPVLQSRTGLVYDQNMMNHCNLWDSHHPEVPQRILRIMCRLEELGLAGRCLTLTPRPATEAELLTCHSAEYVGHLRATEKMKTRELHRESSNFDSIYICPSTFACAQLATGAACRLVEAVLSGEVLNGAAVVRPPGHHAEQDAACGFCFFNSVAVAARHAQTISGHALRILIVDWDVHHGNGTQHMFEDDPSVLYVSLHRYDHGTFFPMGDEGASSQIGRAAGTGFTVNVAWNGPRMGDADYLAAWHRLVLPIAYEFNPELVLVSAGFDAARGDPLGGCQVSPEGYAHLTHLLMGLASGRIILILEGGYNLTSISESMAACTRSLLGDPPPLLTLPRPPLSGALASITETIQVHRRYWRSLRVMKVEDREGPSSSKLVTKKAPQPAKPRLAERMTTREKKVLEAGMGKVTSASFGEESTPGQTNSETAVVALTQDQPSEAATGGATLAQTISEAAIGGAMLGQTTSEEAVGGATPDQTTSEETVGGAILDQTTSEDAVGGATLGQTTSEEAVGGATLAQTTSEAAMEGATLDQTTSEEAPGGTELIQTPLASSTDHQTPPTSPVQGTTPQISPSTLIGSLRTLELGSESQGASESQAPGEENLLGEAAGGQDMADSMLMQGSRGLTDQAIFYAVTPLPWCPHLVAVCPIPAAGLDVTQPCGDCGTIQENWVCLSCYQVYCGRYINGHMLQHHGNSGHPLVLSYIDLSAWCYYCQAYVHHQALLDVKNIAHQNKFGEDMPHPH
Put plainly: nanoBRET target engagement assay, HDAC6. Type of data set: cell-based. The conditions noted are these: HEK293T/17 cells stably expressing HDAC6-nanoLuc, 2 h. On the technique in general: Bioluminescence resonance energy transfer reports proximity on the nanometre scale.

Another data set deals with HDAC1-nanoLuc (Homo sapiens, UniProt Q13547). The data set is described as follows: nanoBRET target engagement assay, HDAC1. Type of data set: cell-based. The conditions noted are these: HEK293T/17 cells stably expressing HDAC1-nanoLuc, 2 h.
Chain of HDAC1-nanoLuc (Q13547 whole entry): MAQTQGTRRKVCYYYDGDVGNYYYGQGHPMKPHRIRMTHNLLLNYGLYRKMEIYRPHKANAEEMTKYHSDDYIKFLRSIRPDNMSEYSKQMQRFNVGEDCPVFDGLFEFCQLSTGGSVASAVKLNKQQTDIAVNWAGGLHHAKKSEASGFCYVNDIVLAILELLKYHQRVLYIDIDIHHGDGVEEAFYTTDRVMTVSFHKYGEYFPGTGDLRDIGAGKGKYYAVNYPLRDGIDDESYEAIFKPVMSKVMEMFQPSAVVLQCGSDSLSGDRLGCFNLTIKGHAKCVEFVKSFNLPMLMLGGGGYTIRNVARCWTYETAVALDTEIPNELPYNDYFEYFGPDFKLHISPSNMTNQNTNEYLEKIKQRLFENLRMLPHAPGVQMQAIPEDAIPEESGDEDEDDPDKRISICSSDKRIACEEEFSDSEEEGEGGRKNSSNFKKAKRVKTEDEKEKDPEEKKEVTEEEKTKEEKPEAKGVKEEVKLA
For data set [2], the target named is T1, HDAC1. The data set is described as follows: In vitro deacetylation assay, HDAC1 (GAK substrate). The note with it: for IC50: purified human HDAC1, GAK substrate 10 µM. Type of data set: biochemical.
The nature of another data set: MTT viability assay. The format is cell-based. The conditions noted are these: human, RPMI-8226 lymphoblasts, RPMI-8226 cells, read-out: EC50 cytotoxicity (MTT viability). The method, then: RPMI-8226 lymphoblasts (ATTC #CCL-155) were used to assess the cytotoxicity of tested compounds. […] Dilution series of tested inhibitors were prepared as 10x stock solutions in PBS and 10 μL was added to cells and incubated under a 5% CO2 atmosphere at 37 °C, for 2 days. Following incubation, 10 μL of MTT reagent (3-(4,5-dimethylthiazol-2-yl)-2,5-diphenyltetrazolium bromide, 5 mg/mL in PBS, Sigma Aldrich) was added to each well and incubated for 90 min, 37 °C, 5% CO2. […]

T1 sequence (Q13547 whole entry): as above

What is called IC50 is the concentration at which inhibition is half-maximal. For orientation: EC50 means the concentration giving half of the maximal effect. As to `O=C(NO)c1cnc(NC2(c3cccc(F)c3)CCCCC2)nc1` [ACY-775], the IC50 against HDAC1 [1] was found to be 21.7 µM; with tubulin acetylation, 0.426 µM; against HDAC1 [2] it was 1.19 µM. The “SI (HD6/HD1) RHKK” value on HDAC1 [1] was 19,550. For the same molecule, the EC50 at HDAC6-nanoLuc is 0.27 µM; at HDAC1-nanoLuc it was > 50 µM; at HDAC1 [2] (Figure 2C, in vitro data (GAK) in μM), 1.19 µM. The “SI (HD6/HD1) GAK, in vitro” value at HDAC1 [2] (ratio of IC50 HDAC1 (GAK) divided by IC50 HDAC6) was 1076. Also, in the data set “MTT viability assay”, the EC50 at 48 h turned out to be 8.6 µM.
As for `CS(=O)(=O)N(Cc1ccc(-c2nnc(C(F)F)o2)cn1)c1cccc(Cl)c1` [compound 7, N-(3-chlorophenyl)-N-((5-(5-(difluoromethyl)-1,3,4-oxadiazol-2-yl)pyridin-2-yl)methyl)methanesulfonamide], the IC50 was > 50 µM at HDAC1 [1], 0.616 µM in the data set on tubulin acetylation and > 50 µM against HDAC1 [2]. Moreover, the “SI (HD6/HD1) RHKK” value at HDAC1 [1] is >25,000. Further, the results for the 50% effective concentration (EC50) at HDAC6-nanoLuc and on HDAC1-nanoLuc were 0.16 µM and > 50 µM, respectively. The EC50 at 48 h in the data set “MTT viability assay” is > 50 µM.
